Results from patent US9408854B2, “Methods and systems for pharmacogenomic treatment of cardiovascular conditions” (ROSTAQUO S.P.A., priority 2009, dated 2016).

Assays:
hypertensive patients = assay: Two separate studies: blood pressure change with HCTZ, Losartan and rostafuroxin in patients carrying profile 4, 8 or 9; assay type: in vivo, human; details: preliminary data
From the text: In particular, individuals carrying profile 4 show a modification in blood pressure of: −12.3±1.5 mmHg with HCTZ; −11.3±1.7 with Losartan and −18.74±1.8 mmHg with rostafuroxin; individuals with profile 8 show the a decrease in blood pressure of −11.3±1.2 with HCTZ; −11.6±1.3 with Losartan and −15.2±1.5 mmHg with rostafuroxin; individuals with profile 9 show the a decrease in blood pressure of −11.9±1.2 with HCTZ; −11.4±1.4 with Losartan and −15.2±1.5 mmHg with rostafuroxin.

[1] = Maximal tolerated dose without any effects (NOAEL) in animals; details: in vivo, read-out: maximal tolerated dose that does not produce any effects (NOAEL)

## C[C@]12CC[C@H](O)C[C@H]1CC[C@@H]1[C@@H]2CC[C@]2(C)[C@@](O)(c3ccoc3)CC[C@]12O [rostafuroxin, 17β-(3-furyl)-5β-androstane-3β,14β,17α-triol]
Hypertensive patients; individuals carrying profile 4
  modification in blood pressure: −18.74±1.8 mmHg
Hypertensive patients; individuals with profile 8
  decrease in blood pressure: −15.2±1.5 mmHg
Hypertensive patients; individuals with profile 9
  decrease in blood pressure: −15.2±1.5 mmHg
[1]
  NOAEL: 100 mg/kg
